Key:
barnyardgrass [1] = experiment: Test A preemergence; type: in vivo, Echinochloa crus-galli; conditions: preemergence; for Barnyardgrass plant response rating (0 to 100 scale, 0 is no effect, 100 is complete control): 125 g ai/ha, visual injury approx. 10 days after treatment; for Barnyardgrass plant response rating: 500 g ai/ha, visual injury after approx. 10 days, 0 to 100 scale (0 no effect, 100 complete control)
Summary of the method: (§1)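 Injury readout: eye-scored versus untreated controls, 0 to 100. Exposure period: ~10 days, greenhouse. Application: soil-directed spray over sown seed (pre) or spray on seedlings 2–10 cm tall with one or two leaves (post), compound carried in non-phytotoxic solvent including surfactant.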

crabgrass, large [2] = experiment: Test A preemergence; type: in vivo, Digitaria sanguinalis; conditions: preemergence; for Crabgrass, Large plant response rating (0 to 100 scale): 125 g ai/ha, visual injury approx. 10 days after treatment; for Crabgrass, Large plant response rating: 500 g ai/ha, visual injury after approx. 10 days, 0 to 100 scale (0 no effect, 100 complete control)
Summary of the method: as §1

foxtail, giant [3] = experiment: Test A preemergence; type: in vivo, Setaria faberii; conditions: preemergence; for Foxtail, Giant plant response rating (0 to 100 scale): 125 g ai/ha, visual injury approx. 10 days after treatment; for Foxtail, Giant plant response rating: 500 g ai/ha, visual injury after approx. 10 days, 0 to 100 scale (0 no effect, 100 complete control)
Summary of the method: as §1

morningglory [4] = experiment: Test A preemergence; type: in vivo, Ipomoea spp.; conditions: preemergence, 125 g ai/ha, visual injury approx. 10 days after treatment
Summary of the method: as §1

pigweed [5] = experiment: Test A preemergence; type: in vivo, Amaranthus retroflexus; conditions: preemergence, 125 g ai/ha, visual injury approx. 10 days after treatment
Summary of the method: as §1

velvetleaf [6] = experiment: Test A preemergence; type: in vivo, Abutilon theophrasti; conditions: preemergence, 125 g ai/ha, visual injury approx. 10 days after treatment
Summary of the method: as §1

wheat [7] = experiment: Test A preemergence; type: in vivo, Triticum aestivum; conditions: preemergence, 125 g ai/ha, visual injury approx. 10 days after treatment
Summary of the method: as §1

corn [8] = experiment: Test A preemergence; type: in vivo, Zea mays; conditions: preemergence; for Corn plant response rating (0 to 100 scale): 125 g ai/ha, visual injury approx. 10 days after treatment; for Corn plant response rating: 500 g ai/ha, visual injury after approx. 10 days, 0 to 100 scale (0 no effect, 100 complete control)
Summary of the method: as §1

barnyardgrass [9] = experiment: Test A postemergence; type: in vivo, Echinochloa crus-galli; conditions: Postemergence
Summary of the method: as §1

crabgrass, large [10] = experiment: Test A postemergence; type: in vivo, Digitaria sanguinalis; conditions: Postemergence
Summary of the method: as §1

foxtail, giant [11] = experiment: Test A postemergence; type: in vivo, Setaria faberii; conditions: Postemergence
Summary of the method: as §1

morningglory [12] = experiment: Test A postemergence; type: in vivo, Ipomoea spp.; conditions: Postemergence
Summary of the method: as §1

pigweed [13] = experiment: Test A postemergence; type: in vivo, Amaranthus retroflexus; conditions: Postemergence
Summary of the method: as §1

velvetleaf [14] = experiment: Test A postemergence; type: in vivo, Abutilon theophrasti; conditions: Postemergence
Summary of the method: as §1

wheat [15] = experiment: Test A postemergence; type: in vivo, Triticum aestivum; conditions: Postemergence
Summary of the method: as §1

corn [16] = experiment: Test A postemergence; type: in vivo, Zea mays; conditions: Postemergence
Summary of the method: as §1

rice = experiment: Test B flood; type: in vivo, Oryza sativa; conditions: 250 g ai/ha, visual rating on 0 to 100 scale (0 no effect, 100 complete control), 13 to 15 days
Summary of the method: (§2)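 Plants were grown to the 2-leaf stage, then pots were flooded to 3 cm above the soil and compounds were applied directly into the paddy water. Water depth was held for the whole test; after 13 to 15 days in a greenhouse, injury was visually rated against untreated controls (0 = no effect, 100 = complete control).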

sedge, umbrella = experiment: Test B flood; type: in vivo, Cyperus difformis; conditions: 250 g ai/ha, visual rating on 0 to 100 scale (0 no effect, 100 complete control), 13 to 15 days
Summary of the method: as §2

ducksalad = experiment: Test B flood; type: in vivo, Heteranthera limosa; conditions: 250 g ai/ha, visual rating on 0 to 100 scale (0 no effect, 100 complete control), 13 to 15 days
Summary of the method: as §2

barnyardgrass [17] = experiment: Test B flood; type: in vivo, Echinochloa crus-galli; conditions: 250 g ai/ha, visual rating on 0 to 100 scale (0 no effect, 100 complete control), 13 to 15 days
Summary of the method: as §2

[18] = 125 g ai/ha, 0 to 100 scale, 0 no effect, 100 complete control
[19] = 500 g ai/ha, 0 to 100 scale (0 no effect, 100 complete control)

Row | Compound | Barnyardgrass plant response rating (0 to 100 scale, 0 is no effect, 100 is complete control) (barnyardgrass [1]) | Barnyardgrass plant response rating (barnyardgrass [1]) | Crabgrass, Large plant response rating (0 to 100 scale) (crabgrass, large [2]) | Crabgrass, Large plant response rating (crabgrass, large [2]) | Foxtail, Giant plant response rating (0 to 100 scale) (foxtail, giant [3]) | Foxtail, Giant plant response rating (foxtail, giant [3]) | Morningglory plant response rating (0 to 100 scale) (morningglory [4]) | Pigweed plant response rating (0 to 100 scale) (pigweed [5]) | Velvetleaf plant response rating (0 to 100 scale) (velvetleaf [6]) | Wheat plant response rating (0 to 100 scale) (wheat [7]) | Corn plant response rating (0 to 100 scale) (corn [8]) | Corn plant response rating (corn [8]) | Barnyardgrass plant response rating (barnyardgrass [9]; [18]) | Barnyardgrass plant response rating (barnyardgrass [9]; [19]) | Crabgrass, Large plant response rating (crabgrass, large [10]; [18]) | Crabgrass, Large plant response rating (crabgrass, large [10]; [19]) | Foxtail, Giant plant response rating (foxtail, giant [11]; [18]) | Foxtail, Giant plant response rating (foxtail, giant [11]; [19]) | Morningglory plant response rating (morningglory [12]; [18]) | Morningglory plant response rating (morningglory [12]; [19]) | also measured
1 | CCc1cc(C(=O)NC2CC2)nn1Oc1cccc(C(F)(F)F)c1 [Compound 215] | 0 | 60 | 50 | 100 | 10 | 70 | 0 | 10 | 0 | 0 | 0 | 0 | 10 | 40 | 10 | 60 | 10 | 70 | 30 | 100 | Pigweed plant response rating (pigweed [13]; [18]): 40; Pigweed plant response rating (pigweed [13]; [19]): 90; Velvetleaf plant response rating (velvetleaf [14]; [18]): 10; Velvetleaf plant response rating (velvetleaf [14]; [19]): 60; Wheat plant response rating (wheat [15]; [18]): 0; Wheat plant response rating (wheat [15]; [19]): 10; Corn plant response rating (corn [16]; [18]): 10; Corn plant response rating (corn [16]; [19]): 20; Plant response rating, Rice (rice): 10; Plant response rating, Sedge, Umbrella (sedge, umbrella): 20; Plant response rating, Ducksalad (ducksalad): 30; Plant response rating, Barnyardgrass (barnyardgrass [17]): 0
2 | CCc1cc(C(=O)NCC(F)(F)F)nn1Oc1cccc(OC(F)(F)F)c1 [Compound 221] | 0 | 10 | 10 | 90 | 0 | 40 | 0 | 0 | 0 | 0 | 0 | 0 | 10 | 10 | 10 | 30 | 10 | 30 | 30 | 80 | Pigweed plant response rating (pigweed [13]; [18]): 20; Pigweed plant response rating (pigweed [13]; [19]): 60; Velvetleaf plant response rating (velvetleaf [14]; [18]): 0; Velvetleaf plant response rating (velvetleaf [14]; [19]): 20; Wheat plant response rating (wheat [15]; [18]): 0; Wheat plant response rating (wheat [15]; [19]): 10; Corn plant response rating (corn [16]; [18]): 10; Corn plant response rating (corn [16]; [19]): 20; Plant response rating, Rice (rice): 0; Plant response rating, Sedge, Umbrella (sedge, umbrella): 0; Plant response rating, Ducksalad (ducksalad): 0; Plant response rating, Barnyardgrass (barnyardgrass [17]): 0
3 | CCc1cc(C(=O)NC2CC2)nn1Oc1cccc(OC(F)(F)F)c1 [Compound 222] | 0 | 90 | 80 | 100 | 0 | 80 | 0 | 20 | 0 | 0 | 0 | 0 | 80 | 80 | 40 | 90 | 20 | 70 | 30 | 50 | Pigweed plant response rating (pigweed [13]; [18]): 30; Pigweed plant response rating (pigweed [13]; [19]): 100; Velvetleaf plant response rating (velvetleaf [14]; [18]): 30; Velvetleaf plant response rating (velvetleaf [14]; [19]): 50; Wheat plant response rating (wheat [15]; [18]): 0; Wheat plant response rating (wheat [15]; [19]): 20; Corn plant response rating (corn [16]; [18]): 0; Corn plant response rating (corn [16]; [19]): 60; Plant response rating, Rice (rice): 15; Plant response rating, Sedge, Umbrella (sedge, umbrella): 65; Plant response rating, Ducksalad (ducksalad): 55; Plant response rating, Barnyardgrass (barnyardgrass [17]): 0
4 | CCNC(=O)c1cc(CC)n(Oc2cccc(OC(F)(F)F)c2)n1 [Compound 223] | 0 | 40 | 20 | 90 | 0 | 20 | 0 | 0 | 0 | 0 | 0 | 0 | 0 | 50 | 20 | 70 | 0 | 30 | 0 | 30 | Pigweed plant response rating (pigweed [13]; [18]): 20; Pigweed plant response rating (pigweed [13]; [19]): 60; Velvetleaf plant response rating (velvetleaf [14]; [18]): 0; Velvetleaf plant response rating (velvetleaf [14]; [19]): 30; Wheat plant response rating (wheat [15]; [18]): 0; Wheat plant response rating (wheat [15]; [19]): 10; Corn plant response rating (corn [16]; [18]): 0; Corn plant response rating (corn [16]; [19]): 30; Plant response rating, Rice (rice): 25; Plant response rating, Sedge, Umbrella (sedge, umbrella): 65; Plant response rating, Ducksalad (ducksalad): 25; Plant response rating, Barnyardgrass (barnyardgrass [17]): 0

Source: patent US20150105252A1, “SUBSTITUTED PYRAZOLES AS HERBICIDES” (E I DU PONT DE NEMOURS AND COMPANY, priority 2013, published 2015)
